Measured values as given in patent US8921373B2, “Compounds having TRPV1 antagonistic activity and uses thereof” (Shionogi & Co., Ltd., priority 2010, dated 2014).

Target: human recombinant TRPV1 (Homo sapiens (Human), UniProt Q8NER1)
Experiment: TRPV1 pH-Based Assay (Protocol 2, Ca2+ response in TRPV1/CHO cells, Fura-2)
Format: cell-based
Settings: not given
Procedure: For Protocol 2, a Chinese Hamster Ovary cell line (CHO) that has been engineered to constitutively express human recombinant TRPV1 was used (TRPV1/CHO cells). The TRPV1/CHO cell line was generated as described below.
TRPV1/CHO cells were seeded in the 96-well clear-bottom black-wall plate (Nunc) at densities of 1-2×10^4 cells/well and grown in 100 μL of culture medium (alpha-MEM supplemented with 10% FBS, 20 mM HEPES, 1 mg/mL geneticin and 1% antibiotic-antimycotic mixed stock solution) for 1-2 days before the experiment.
(2) The 96-well plate was incubated at 37° C. for 45 min.
(3) The loading buffer was removed from each well. […] The wells were then refilled with 80 μL of measuring buffer.
(4) After an incubation at 4° C. for 15 min, the 96-well plate was transferred to FDSS-3000 (Hamamatsu Photonics, Japan).
(5) The Fura-2 fluorescent intensity was monitored at a wavelength of 340 nm and at 380 nm, respectively, at a rate of 0.5 Hz for a total of 240 seconds. After 16 time points (32 sec) of baseline detection, 20 μL of agonist solution was added to each well. The final volume was 100 μL/well.
(6) Fluorescence intensity ratio refers to the fluorescence intensity at 340 nm over the fluorescence intensity at 380 nm at a particular time point. The baseline was set as the average of the fluorescent intensity ratios for the first 16 time points before the addition of agonist solution. The maximum response was the highest fluorescent intensity ratio during the 60 time points following addition of agonist solution.
(7) Maximal signal ratios from each well were calculated as output data using the FDSS-3000 analysis program. Data were analyzed using Excel (Microsoft) and XLfit (idbs) software.
Two different agonist solutions with different H2SO4 concentrations were used for the pH assay (FIG. 3A). For one half of a 96-well plate one agonist solution was used, for the other half the other agonist solution. The agonist solutions were obtained by diluting sulfuric acid (H2SO4, 1M) with measuring buffer. The concentrations for the two agonist solutions were determined as described above in Section 2 of Protocol 2.
The sulfuric acid concentrations between the two agonist solutions differed by 0.5 mM. […] After 1:4 dilution of the agonist solutions, the final sulfuric acid concentration was 3.2 mM and 3.3 mM, respectively. The resulting pH value for the pH assay was 5.0 to 5.1.
Test compounds were dissolved in DMSO to yield 1 mM stock solutions. […] The thereby-obtained solutions were further diluted in measuring buffer (1:100) as 10× stock serial dilutions with a DMSO concentration of 1%. 10 μL of a 10× stock was added into each well at step 3.3.(4) of Protocol 2.
Steps (1) and (2) of this Assay were the same as steps 2.2.(1) and 2.2.(2) of Protocol 2, respectively.
(3) The cells were washed twice with 150 μL of measuring buffer (mentioned in 2.2.(3) of Protocol 2, no probenecid). The wells were subsequently refilled with 70 μL of measuring buffer.
(4) Either 10 μl of measuring buffer or 10 μL of 10× stock serial dilution of test compound (described in 3.2. above) were applied to each well. Usually, only one test compound was tested per 96-well plate. The number of replicates per 96-well plate for a particular antagonist at a particular concentration was 7×2 since two different sulfuric acid concentrations were used per 96-well plate (N=7×2) (FIG. 3).
Step (5) was the same as 2.2.(4) above.
(6) Fura-2 fluorescent intensity was monitored as described in 2.2.(5) above. After 16 time points of baseline detection, 20 μL of agonist solution (measuring buffer titrated with H2SO4 to yield pH 5.0-5.1 when mixed 1:4 with the measuring buffer containing test compound) was added to each well (final volume 100 μL/well).
Steps (7) and (8) were as described in 2.2.(6) and 2.2.(7) above, respectively.
(1) The pH values of the buffer in the wells of A1→H1 and A7→H7 (longitudinally; FIG. 3) were measured one by one using a portable pH meter.

Sequence of human recombinant TRPV1 (Q8NER1 whole entry): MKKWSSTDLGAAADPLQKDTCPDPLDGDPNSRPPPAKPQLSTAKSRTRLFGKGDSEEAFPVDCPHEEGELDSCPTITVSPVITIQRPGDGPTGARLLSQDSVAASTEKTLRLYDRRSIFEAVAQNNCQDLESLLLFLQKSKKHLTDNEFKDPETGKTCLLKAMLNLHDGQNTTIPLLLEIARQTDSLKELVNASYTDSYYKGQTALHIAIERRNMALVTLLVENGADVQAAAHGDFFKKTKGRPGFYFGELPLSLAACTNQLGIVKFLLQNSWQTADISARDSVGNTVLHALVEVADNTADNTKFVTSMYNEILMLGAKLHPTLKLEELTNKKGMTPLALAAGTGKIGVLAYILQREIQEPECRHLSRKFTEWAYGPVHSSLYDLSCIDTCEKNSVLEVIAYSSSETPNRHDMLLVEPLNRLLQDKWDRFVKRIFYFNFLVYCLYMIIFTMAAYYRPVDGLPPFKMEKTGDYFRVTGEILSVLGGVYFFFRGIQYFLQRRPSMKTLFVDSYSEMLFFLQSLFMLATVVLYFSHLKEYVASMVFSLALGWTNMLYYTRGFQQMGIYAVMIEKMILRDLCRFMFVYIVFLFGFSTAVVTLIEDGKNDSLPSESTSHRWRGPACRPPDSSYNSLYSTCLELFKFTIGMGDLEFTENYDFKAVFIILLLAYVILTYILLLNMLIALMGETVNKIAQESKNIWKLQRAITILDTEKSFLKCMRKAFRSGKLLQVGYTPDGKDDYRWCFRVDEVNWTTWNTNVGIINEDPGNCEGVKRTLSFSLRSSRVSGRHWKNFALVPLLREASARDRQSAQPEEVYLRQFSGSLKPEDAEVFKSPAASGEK

Compound	IC50
O=C(Nc1nc2cc(F)c(F)cc2s1)N1CCN(c2ncc(C[C@@H](O)CO)cc2F)CC1 [AFA]	≤ 50 nM

Same assay, conditions: TRPV1/CHO cells, pH 5.0-5.1; comparative compounds without the substituted alkyl group; read-out: TRPV1 IC50 Potency (pH-Based Assay), Comparative compound IC50

Compound	IC50
O=C(Nc1ccc(C(F)(F)F)c(Cl)c1)N1CC=C(c2ncccc2Cl)CC1 [drawing 478, reference compound]	139 nM
O=C(Nc1ccc(C(F)(F)F)c(Cl)c1)N1CC=C(c2ncccc2Cl)CC1 [drawing 493, reference compound]	77 nM
C[C@@H]1CN(c2ncccc2Cl)CCN1C(=O)Nc1nc2ccc(F)cc2s1 [reference compound]	24 nM
O=C(Nc1nc2ccc(F)cc2s1)N1CC=C(c2ncccc2Cl)CC1 [reference compound]	943 nM

Same assay, conditions: TRPV1/CHO cells, pH 5.0-5.1; compounds of the invention; read-out: TRPV1 IC50 Potency (pH-Based Assay), Compound IC50

Compound	IC50
O=C(Nc1ccc(OC(F)(F)F)c(Cl)c1)N1CC=C(c2ncc(C[C@@H](O)CO)cc2Cl)CC1	17 nM
O=C(Nc1ccc(OC(F)(F)F)cn1)N1CC=C(c2ncc(C(F)(F)[C@@H](O)CO)cc2Cl)CC1	46 nM
CO[C@@H]1CN(c2ncc(C[C@@H](O)CO)cc2Cl)CCN1C(=O)Nc1nc2ccc(F)cc2s1	1 nM
O=C(Nc1ccc(C(F)(F)F)cn1)N1CCC(F)(c2ncc([C@H](O)[C@H](O)CO)cc2Cl)CC1	143 nM
O=C(Nc1nc2ccc(C(F)(F)F)cc2s1)N1CCC(F)(c2ncc([C@H](O)[C@H](O)CO)cc2Cl)CC1	171 nM
O=C(Nc1nc2ccc(C(F)(F)F)cc2s1)N1CCC(F)(c2ncc(C[C@H](O)CO)cc2Cl)CC1	614 nM
O=C(Nc1ccc(C(F)(F)F)cn1)N1CC=C(c2ncc(CC(O)CO)cc2Cl)CC1 (stereo not shown)	38 nM
O=C(Nc1ccc(C(F)(F)F)cc1)N1CC=C(c2ncc(CC(O)CO)cc2Cl)CC1 (stereo not shown)	12 nM
O=C(Nc1ccc(C(F)(F)F)c(Cl)c1)N1CC=C(c2ncc(CC(O)CO)cc2Cl)CC1 (stereo not shown)	10 nM
O=C(Nc1nc2ccc(F)cc2s1)N1CC=C(c2ncc(CC(O)CO)cc2Cl)CC1 (stereo not shown)	5 nM

Same assay, conditions: TRPV1/CHO cells, pH 5.0-5.1; read-out: IC50 value by the pH-Based Assay

Compound	IC50
O=C(Nc1nc2ccc(F)cc2s1)N1CC=C(c2ncc(C[C@H](O)CO)cc2Cl)CC1 [AAH]	≤ 50 nM
O=C(Nc1ccc(C(F)(F)F)cn1)N1CC=C(c2ncc(C[C@@H](O)CO)cc2Cl)CC1 [AAJ, (R)-4-(3-Chloro-5-(2,3-dihydroxypropyl)pyridin-2-yl)-N-(5-(trifluoromethyl)pyridin-2-yl)-5,6-dihydropyridine-1(2H)-carboxamide]	≤ 50 nM
O=C(Nc1nc2ccc(F)cc2s1)N1CC=C(c2ncc(C[C@@H](O)CO)cc2Cl)CC1 [AAL, (R)-4-(3-Chloro-5-(2,3-dihydroxypropyl)pyridin-2-yl)-N-(6-fluorobenzo[d]thiazol-2-yl)-5,6-dihydropyridine-1(2H)-carboxamide]	≤ 50 nM
O=C(Nc1ccc(C(F)(F)F)c(Cl)c1)N1CC=C(c2ncc(C[C@@H](O)CO)cc2F)CC1 [AAY, (R)-N-(3-chloro-4-(trifluoromethyl)phenyl)-5-(2,3-dihydroxypropyl)-3-fluoro-5′,6′-dihydro-[2,4′-bipyridine]-1′(2′H)-carboxamide]	≤ 50 nM
O=C(Nc1ccc(C(F)(F)F)c(Cl)c1)N1CC=C(c2ncc(C[C@H](O)CO)cc2F)CC1 [AAZ, (S)-N-(3-chloro-4-(trifluoromethyl)phenyl)-5-(2,3-dihydroxy-propyl)-3-fluoro-5′,6′-dihydro-[2,4′-bipyridine]-1′(2′H)-carboxamide]	≤ 50 nM
O=C(Nc1ccc(C(F)(F)F)c(Cl)c1)N1CCC(F)(c2ncc([C@H](O)[C@@H](O)CO)cc2Cl)CC1 [ABG, N-(3-Chloro-4-(trifluoromethyl)phenyl)-4-(3-chloro-5-((1S,2S)-1,2,3-trihydroxypropyl)pyridin-2-yl)-4-fluoropiperidine-1-carboxamide]	≤ 50 nM
Cc1cc([C@H](O)[C@@H](O)CO)cnc1C1(F)CCN(C(=O)Nc2ccc(C(F)(F)F)c(Cl)c2)CC1 [ABH, N-(3-Chloro-4-(trifluoromethyl)phenyl)-4-fluoro-4-(3-methyl-5-((1S,2S)-1,2,3-trihydroxypropyl)pyridin-2-yl)piperidine-1-carboxamide]	≤ 50 nM
Cc1cc(NC(=O)N2CC=C(c3ncc(C[C@H](O)CO)cc3Cl)CC2)ccc1C(F)(F)F [ACG, (S)-4-(3-Chloro-5-(2,3-dihydroxypropyl)pyridin-2-yl)-N-(3-methyl-4-(trifluoromethyl)phenyl)-5,6-dihydropyridine-1(2H)-carboxamide]	≤ 50 nM
Cc1cc(NC(=O)N2CCC(F)(c3ncc(C[C@H](O)CO)cc3F)CC2)ccc1OC(F)(F)F [ACR, (S)-4-(5-(2,3-dihydroxypropyl)-3-fluoropyridin-2-yl)-4-fluoro-N-(3-methyl-4-(trifluoromethoxy)phenyl)piperidine-1-carboxamide]	≤ 50 nM
Cc1cc(NC(=O)N2CC=C(c3ncc(C(F)(F)[C@@H](O)CO)cc3Cl)CC2)ccc1C(F)(F)F [ADC, (S)-4-(3-chloro-5-(1,1-difluoro-2,3-dihydroxypropyl)pyridin-2-yl)-N-(3-methyl-4-(trifluoromethyl)phenyl)-5,6-dihydropyridine-1(2H)-carboxamide]	≤ 50 nM
O=C(Nc1nc2ccccc2s1)N1CCN(c2ncc(C[C@H](O)CO)cc2Cl)CC1 [ADS]	≤ 50 nM
C[C@H]1CN(c2ncc(C[C@@H](O)CO)cc2F)CCN1C(=O)Nc1nc2ccc(F)cc2s1 [AEJ]	≤ 50 nM
C[C@H]1CN(c2ncc(C[C@H](O)CO)cc2F)CCN1C(=O)Nc1nc2ccc(F)cc2s1 [AEL]	≤ 50 nM
Cc1cc2nc(NC(=O)N3CCN(c4ncc(C[C@@H](O)CO)cc4F)C[C@@H]3C)sc2cc1C [AET]	≤ 50 nM
Cc1cc2nc(NC(=O)N3CCN(c4ncc(C[C@H](O)CO)cc4F)C[C@@H]3C)sc2cc1C [AEU]	≤ 50 nM
C[C@H]1CN(c2ncc(C[C@H](O)CO)cc2F)CCN1C(=O)Nc1nc2cc(F)c(F)cc2s1 [AEZ]	≤ 50 nM
C[C@H]1CN(C(=O)Nc2nc3ccc(F)cc3s2)CCN1c1ncc(C[C@H](O)CO)cc1F [AFM, (S)-4-(5-((S)-2,3-dihydroxypropyl)-3-fluoropyridin-2-yl)-N-(6-fluorobenzo[d]thiazol-2-yl)-3-methylpiperazine-1-carboxamide]	≤ 50 nM
Cc1ccc2nc(NC(=O)N3CCN(c4ncc(C[C@@H](O)CO)cc4F)[C@@H](C)C3)sc2c1 [AFO, (S)-4-(5-((R)-2,3-dihydroxypropyl)-3-fluoropyridin-2-yl)-3-methyl-N-(6-methylbenzo[d]thiazol-2-yl)piperazine-1-carboxamide]	≤ 50 nM
Cc1ccc2nc(NC(=O)N3CCN(c4ncc(C[C@H](O)CO)cc4F)[C@@H](C)C3)sc2c1 [AFP, (S)-4-(5-((S)-2,3-dihydroxypropyl)-3-fluoropyridin-2-yl)-3-methyl-N-(6-methylbenzo[d]thiazol-2-yl)piperazine-1-carboxamide]	≤ 50 nM
C[C@@H]1CN(c2ncc(C[C@H](O)CO)cc2F)C[C@H](C)N1C(=O)Nc1nc2ccc(F)cc2s1 [AFU]	≤ 50 nM
C[C@H]1CN(C(=O)Nc2nc3cc(F)c(F)cc3s2)CCN1c1ncc(C[C@H](O)CO)cc1F [AGL]	≤ 50 nM
C[C@H]1CN(c2ncc(C[C@H](O)CO)cc2F)CCN1C(=O)Nc1nc2ccc(SC(F)(F)F)cc2s1 [AGR]	≤ 50 nM
C[C@H]1CN(c2ncc(C[C@@H](O)CO)cc2C(F)(F)F)CCN1C(=O)Nc1nc2ccccc2s1 [AGV]	≤ 50 nM
C[C@@H]1CN(c2ncc(C[C@H](O)CO)cc2F)CCN1C(=O)Nc1nc2ccccc2s1 [AGX]	≤ 50 nM
O=C(Nc1nc2ccc(F)cc2s1)N1C2CCC1CN(c1ncc(C[C@H](O)CO)cc1F)C2 [AHB]	≤ 50 nM
